Data reported in ChEMBL document CHEMBL3507680, “University of Dundee, Gates Library screen for HepG2 cell viability”.

Test: Human HepG2 cell viability assay in 384 well format
Type: toxicity, cell-based
Set-up: dose 125 nL, time 70.5 hour; concentration not given beside the values
Settings: HepG2 cells, read-out: Inhibition

Row | SMILES | cytotoxicity at 70.5 h [%]
1 | CSCCC1CC(=O)Nc2cc(O)c(C)cc21 (configuration not stated) | 25.3
2 | CCNc1ncc(C(=O)NC2COC3(CCCC3)C2)cn1 (configuration not stated) | -3.75
3 | COc1ccc(Cn2cc(C(=O)N(C)Cc3cnccn3)nn2)cc1 | -14.3
4 | Cc1nc2ccc(C(=O)N3CCN(CCO)[C@@H]4CS(=O)(=O)C[C@@H]43)cc2o1 | -5.42
5 | CC(C)C(=O)NCC(=O)NCC1CCN(c2cnn(C)c(=O)c2)CC1 | 23.1
6 | Cc1cc(C2CCC2)nc(N2CCC3(CCNC(=O)CC3)CC2)n1 | -13
7 | CCn1cc(C(=O)N2CCCC3(CCC(=O)N(CCC(C)C)C3)C2)cn1 (configuration not stated) | -5.07
8 | CCCc1nc(NCc2c(C)nn(CCC)c2C)c2cnn(C)c2n1 | -9.62
9 | CN(CCCc1nccn1C)c1nccc(N2CCC(O)C2)n1 (configuration not stated) | 7.29
10 | CC[C@H](Nc1nc(C(C)C)nc2c1cnn2C)c1ccccc1 | -8.04
11 | CN(Cc1cc[nH]n1)C(=O)c1cn(Cc2c(F)cccc2F)nn1 | -8.9
12 | COc1ccc(OCc2cc(C(=O)N3C[C@@H](C)O[C@@H](C)C3)n[nH]2)c(Cl)c1 | -8.42
13 | CCn1ncnc1CN1CCC(CNC(=O)c2cccc(C)c2)C1 (configuration not stated) | -15.4
14 | Cc1cc(C)n(C2CCN(c3ncnc4c3CCNCC4)C2)n1 (configuration not stated) | -9.03
15 | COc1ccc(Cl)cc1-n1nc(C2CCCC2)nc1Cn1cnnn1 | 5.4
16 | CC(C)C1CN(C(=O)c2cc(C3CC3)n[nH]2)CCC(=O)N1CC1CC1 (configuration not stated) | -3.1
17 | CSCc1noc(CNC(=O)C2CCN(C3CCCCC3)CC2)n1 | -21.4
18 | COc1cc(NCC(O)CN2CCCCCC2)ncn1 (configuration not stated) | -7.58
19 | Cc1nc(C(C)N2Cc3ncccc3C2=O)cs1 (configuration not stated) | -12.4
20 | CCNC(=O)[C@@H]1C[C@@H](NC(=O)c2cccn2C)CN1CCCSC | -6.56
21 | CN1CCCCCC1C(=O)NCCCn1ncc2ccccc21 (configuration not stated) | -11.3
22 | Cc1cc2nc(C(C)C)cc(N(C)CC3CCCN(CCO)C3)n2n1 (configuration not stated) | -2.47
23 | CCn1cc(CN2CCC(CCC(=O)Nc3ccccc3Cl)CC2)cn1 | 12.4

Row | SMILES | cytotoxicity at 70.5 h [%]
24 | CC1CCN(S(=O)(=O)N2CCCC(c3cccc(C(=O)O)c3)C2)CC1 (configuration not stated) | -12.1
25 | Cc1cc(C(=O)N2CCCC(C(=O)c3nccn3C)C2)c(=O)[nH]c1C (configuration not stated) | 7.95
26 | CN(C)C(C(=O)NCc1cc(C(C)(C)C)n[nH]1)c1ccc(F)cc1 (configuration not stated) | -4.44
27 | Cc1cc(C2CCCCN2C(=O)CN2CC3(CCNCC3)OC2=O)no1 (configuration not stated) | -6.52
28 | COCCCN1CC2(CCCN(c3ncc4nc[nH]c4n3)C2)CCC1=O (configuration not stated) | -11.3
29 | CCOCC1CCN(C(=O)C(c2ccccc2F)N(C)C)CC1 (configuration not stated) | -8.49
30 | CCc1nc(N)nc(N2CCCC3(CCOCC3)C2)c1C | -7.63
31 | C1CCC(c2nnc3sc(C4CCCO4)nn23)C1 (configuration not stated) | 10.1
32 | CC(C)N1CC(c2ncc(-c3ccc4c(c3)OCCO4)[nH]2)CC1=O (configuration not stated) | -5.64
33 | Cc1c(CNC(=O)C2CCCCCN2C)oc2ccccc12 (configuration not stated) | -0.804
34 | O=C(O)c1cc(-c2ccc3c(c2)OCO3)cc(S(=O)(=O)NC2CC2)c1 | -11.6
35 | Cc1cnc(NCC(C)(C)N2CCCCC2)nc1 | -5.95
36 | Cc1nn(CCO)cc1CN1CCCN(C2CCCC2)CC1 | 12.8
37 | CC(=O)N1CCc2nc(N(C)C)nc(NCCc3ccccc3)c2CC1 | -9.06
38 | CCCC1C=CCN1C(=O)c1cc(COc2ccc3c(c2)OCO3)[nH]n1 (configuration not stated) | -11
39 | CCCN1CC2(CCN(C)CC2)CC1C(=O)NCCn1nc(C)nc1C (configuration not stated) | 6.07
40 | CC(Nc1nc(-c2ccccc2)nc2c1CCNCC2)c1nccs1 (configuration not stated) | 2.31
41 | CC(c1cccc(-c2nccn2CCc2cn[nH]c2)c1)N(C)C (configuration not stated) | 4.99
42 | CC(C)[C@H]1CN(C2Cc3ccccc3C2)C[C@@H]1NS(C)(=O)=O | 7.83
43 | COc1cc(N(C)CCCn2nc(C)cc2C)ncn1 | -10.8
44 | CC(C)CC(O)C1CCN(Cc2cnc(-c3cccs3)nc2)CC1 (configuration not stated) | 37.1
45 | O=C(c1csnn1)N1CCc2[nH]nc(COc3cccc(Cl)c3)c2C1 | -2.42
46 | Cc1nnsc1CNC(=O)Nc1cccc(N2CCN(C)C2=O)c1 | 5.12

Row | SMILES | cytotoxicity at 70.5 h [%]
47 | Cc1ncc(C(=O)N2CCCC(C(=O)c3nccn3C)C2)c(O)n1 (configuration not stated) | 9.55
48 | Cc1nc(C)c(CC(=O)N2C[C@@H](C(=O)O)[C@H](c3ccncc3)C2)s1 | -0.442
49 | c1cc2c(cc1-n1nc(C3CC3)nc1-c1csnn1)OCCO2 | 2.73
50 | CN1CC2(CCN(Cc3cccc(C#N)c3)CC2)CC1=O | 20.6
51 | CCCn1cnnc1CN(C)C(=O)C1CCCN(C2CCN(C)CC2)C1 (configuration not stated) | -9.33
52 | COCC[C@]1(O)CCN(C2CCN(C(=O)C3CCC3)CC2)C[C@H]1C | -9.1
53 | CN(Cc1cccc2ncccc12)C(=O)CCC(F)(F)F | 27.3
54 | CC(C)N1CC2(CCCN(c3ccccn3)C2)CCC1=O (configuration not stated) | -6.62
55 | CCCc1nnc(N2CCC3(CC2)CN(C)C(=O)O3)o1 | 2.82
56 | COc1cccc(OCC2CCCN(Cc3ccncc3)C2)c1 (configuration not stated) | -10.6
57 | CCN1CCC(CC(=O)N[C@H](C(=O)O)c2cccc(F)c2F)CC1 | -2.11
58 | Cn1ccnc1C1CCCN(C(=O)c2cc(F)cc(F)c2)C1 (configuration not stated) | -6.29
59 | CC(C)=CCN1C(=O)[C@H]2CC[C@@H]1CN(C(=O)CCc1n[nH]c(C)c1C)C2 | 11.2
60 | CC(c1cccc(-c2cn(Cc3ccoc3)nn2)c1)N(C)C (configuration not stated) | -2.66
61 | Cc1ccc(O)c(CN(Cc2ccccc2)Cc2nccs2)n1 | -4.83
62 | Cc1ccc(C(=O)N(C)CCCc2cnn(C)c2)cc1N1CCNC1=O | 46.5
63 | CCOCCn1nc(C)cc1C(=O)N1CC[C@](C)(O)C(C)(C)C1 | 2.52
64 | Cc1n[nH]c(C)c1CCN(C)C(=O)C(c1cccnc1)N1CCOCC1 (configuration not stated) | -4.73
65 | COc1cccc2c1OCC(C(=O)N1CCN(S(=O)(=O)N(C)C)CC1)C2 (configuration not stated) | -2.76
66 | CSCCCNC(=O)c1coc(Cn2cnc3ccccc32)n1 | -6.75
67 | CN(Cc1cc[nH]n1)C(=O)c1ccc2c(c1)nc(N1CC[C@H](O)C1)n2C | -1.12
68 | CSc1nccc(-c2cccc(-c3ccn(CC4COCCO4)n3)c2)n1 (configuration not stated) | -13.8
69 | Cc1ccc(Oc2ncccc2CNC2Cc3ccccc3C2)cn1 | -8.21

Row | SMILES | cytotoxicity at 70.5 h [%]
70 | CCC[C@@H]1CN(C(=O)c2cc3ccccc3cc2O)C[C@H]1N(C)C | 28.4
71 | Cc1cc(NC(C)Cn2cccn2)n2nccc2n1 (configuration not stated) | -12.5
72 | O=C(c1ncc(F)cc1F)N1CCC(c2ncc[nH]2)CC1 | -14
73 | CC(=O)c1cc(CN2C[C@@H](C(=O)O)[C@H](c3cccnc3)C2)cs1 | -7.32
74 | CN1CCN(Cc2ccc(-c3ccc(-c4ccn[nH]4)cc3)nc2)CC1 | 0.0371
75 | Cc1ccc(CN2CCN(CC(=O)N(C)C)[C@@H]3CS(=O)(=O)C[C@@H]32)cc1C | -3.23
76 | CN(C(=O)c1cccc(NCC(=O)O)c1)C(C1CC1)C1CC1 | -8.7
77 | Cc1ccc(CC(=O)N2C[C@@H](CN(C)C)[C@@H](CO)C2)cc1C | -2.62
78 | CC(C)c1nccc(CN2CCC(c3nc4ccccc4n3C)CC2)n1 | -20.5
79 | CCC1CN(C(=O)c2ccc(=O)[nH]n2)CCC(=O)N1Cc1ccccc1 (configuration not stated) | 1.68
80 | CNC(=O)CNC(=O)CC1C(=O)NCCN1Cc1ccccc1C (configuration not stated) | -5.79
81 | COc1cccc(-c2cccc(CN3C[C@@H]4CC[C@H](C3)N(C)C4=O)c2)c1 | 14.8
82 | Cc1nn(C)c(C)c1CCC(=O)NCc1csc(N2CCCC2)n1 | 2.01
83 | Cc1[nH]c(-c2ccccc2)nc1C(=O)N1CCC2(CCCO2)CC1 | -2.81
84 | CN(CCc1ccccc1)c1cnn(CC(=O)N2CCOCC2)c(=O)c1 | -7.73
85 | CCOCC(O)CN1CCN(C(=O)c2ccc(OC)cc2)CC1 (configuration not stated) | -9.9
86 | CC(C)N(C)S(=O)(=O)N(C)Cc1ccc2c(c1)OCCO2 | 4.58
87 | CC(NC(=O)NCc1ccccn1)c1ccc2c(c1)CCC(=O)N2 (configuration not stated) | -6.54
88 | CC(Cn1cccn1)NC(=O)Nc1nncs1 (configuration not stated) | -2.31
89 | Cc1nc(CNC(=O)NCc2cccnc2N(C)C)cs1 | -5.06
90 | COC(=O)C(NC(=O)C1CCCC1)c1cc(F)ccc1F (configuration not stated) | 0.552
91 | CC(O)CN1CCN(C(=O)c2cc3ccccc3n2C)CC1 (configuration not stated) | 14.8
92 | Cc1nc(C2CCCN2C(=O)CCCn2cccn2)no1 (configuration not stated) | 3.27

Row | SMILES | cytotoxicity at 70.5 h [%]
93 | Cn1cnnc1C1CCCN(C(=O)NCc2ccccn2)C1 (configuration not stated) | 15.7
94 | CN(Cc1ccco1)C(=O)C1CSCN1C(=O)c1cccs1 (configuration not stated) | 12.5
95 | CCc1c(C(=O)N2CCCC(N(C)C)C2)cnn1C(C)(C)C (configuration not stated) | -4.41
96 | Cc1nn(C)c(C)c1C1CCCN1C(=O)CCNS(C)(=O)=O (configuration not stated) | -5.69
97 | Cc1nc2n(n1)CC(NCc1cc(Cl)c3c(c1)OCCO3)CC2 (configuration not stated) | -4.92
98 | Cc1nn(C)c(Cl)c1C1CCCN1C(=O)CCNc1ncccn1 (configuration not stated) | -2.34
99 | COc1c(C2CCCN2C(=O)CCNc2ncccn2)c(C)nn1C (configuration not stated) | -10.7
100 | COc1cc(CNC2CCc3nc(C)nn3C2)cc2c1OCO2 (configuration not stated) | -5.53
101 | Cc1nnc(NC(=O)NCc2ccc(OC3CCCC3)nc2)s1 | 1.95
102 | Cc1[nH]ncc1CCCNC(=O)N1CCCC(c2nncn2C)C1 (configuration not stated) | -1.78
103 | Cn1cc(CCNC(=O)N2CCCC(c3nncn3C)C2)cn1 (configuration not stated) | -4.93
104 | CCOCCCn1c(NC(=O)c2cnc(C)cn2)nc2ccccc21 | -5.61
105 | CCc1c(C(=O)N2CCC(CC(N)=O)CC2)cnn1C(C)(C)C | -3.41
106 | CCOCCCn1c(NC(=O)c2cc(C)no2)nc2ccccc21 | 2.27
107 | Cc1ccccc1CN(C)C(=O)CN1CCCC(Cn2cncn2)C1 (configuration not stated) | -6.64
108 | CC(O)CN1CCN(Cc2coc(-c3ccc(Cl)cc3)n2)CC1 (configuration not stated) | -5.87
109 | Cc1cnc(CN(C)C2CCCN(Cc3noc(C4CC4)n3)C2)cn1 (configuration not stated) | 16.1
110 | Cc1cc(CN(C)C2CCCN(Cc3noc(C)n3)C2)no1 (configuration not stated) | 7.31
111 | Cc1nnc(CN(C)C2CCCN(Cc3noc(C4CC4)n3)C2)o1 (configuration not stated) | -8.76
112 | CCCc1ccc(OCCNCc2ccco2)c(OC)c1 | -1.62
